Substitutions are numbered along the chain they refer to.
Key:
[1] = molecular target: KIF13B T192Y-MD-NC-CC1 mutant (rat); assay: crystal structure; crystals of the KIF13B T192Y-MD-NC-CC1 mutant (~25 mg/ml), 0.1 M Bis-Tris propane pH 8.2, 30% PEG 20000, sitting drop, 16°C; one molecule in the asymmetric unit, dimer formed by a crystallographic two-fold symmetry axis
[2] = molecular target: T1, UNC-104 (MD-NC-CC1, residue 1-446) (Caenorhabditis elegans, UniProt P23678, C184Y); assay: microtubule-stimulated ATPase assay; format: biochemical; settings: microtubules present
T1 construct: MD-NC-CC1 fragment, residues 1-446, bacterial expression
T1 sequence (P23678 1-446 C184Y): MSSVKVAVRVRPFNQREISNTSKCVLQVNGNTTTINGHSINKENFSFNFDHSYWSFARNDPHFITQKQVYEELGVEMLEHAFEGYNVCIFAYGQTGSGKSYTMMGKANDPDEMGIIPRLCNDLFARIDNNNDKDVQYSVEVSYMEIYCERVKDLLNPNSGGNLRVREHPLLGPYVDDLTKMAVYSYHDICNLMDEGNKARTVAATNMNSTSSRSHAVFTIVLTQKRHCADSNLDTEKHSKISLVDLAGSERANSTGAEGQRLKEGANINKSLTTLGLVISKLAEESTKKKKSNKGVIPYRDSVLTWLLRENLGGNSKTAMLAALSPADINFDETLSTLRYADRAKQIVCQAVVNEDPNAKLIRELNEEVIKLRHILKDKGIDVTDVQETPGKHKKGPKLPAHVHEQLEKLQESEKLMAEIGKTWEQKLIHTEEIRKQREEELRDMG

KIF13B MD-NC-CC1 [3] = molecular target: T2, KIF13B MD-NC-CC1 (Rattus norvegicus, UniProt A0A0G2K8Z9, , form not given); assay: microtubule-stimulated ATPase, malachite green phosphate endpoint assay; format: biochemical; settings: microtubules present
T2 construct: MD-NC-CC1 fragment (motor domain, neck coil, CC1)
T2 sequence (A0A0G2K8Z9 48-490 T239Y limits assumed): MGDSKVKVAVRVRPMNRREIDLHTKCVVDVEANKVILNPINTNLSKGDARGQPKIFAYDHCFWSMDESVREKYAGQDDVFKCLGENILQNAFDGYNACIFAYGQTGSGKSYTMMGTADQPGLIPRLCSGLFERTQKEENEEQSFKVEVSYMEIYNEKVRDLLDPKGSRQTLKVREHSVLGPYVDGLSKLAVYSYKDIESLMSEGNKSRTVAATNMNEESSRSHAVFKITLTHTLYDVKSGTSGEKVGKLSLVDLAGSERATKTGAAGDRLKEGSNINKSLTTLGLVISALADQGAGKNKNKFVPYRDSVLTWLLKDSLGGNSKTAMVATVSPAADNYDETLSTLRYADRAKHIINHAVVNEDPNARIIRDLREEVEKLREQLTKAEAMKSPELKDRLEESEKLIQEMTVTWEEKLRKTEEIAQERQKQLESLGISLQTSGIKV

[4] = molecular target: T3, UNC-104 (MD-NC-CC1, residue 1-446) (Caenorhabditis elegans, UniProt P23678); assay: microtubule-stimulated ATPase assay; format: biochemical; settings: microtubules present
T3 construct: MD-NC-CC1 fragment, residues 1-446, bacterial expression
T3 sequence (P23678 1-446): T1 sequence (P23678 1-446 C184Y) with Y184C

KIF13B MD-NC-CC1 [5] = molecular target: T4, KIF13B MD-NC-CC1 (Rattus norvegicus, UniProt A0A0G2K8Z9); assay: microtubule-stimulated ATPase, malachite green phosphate endpoint assay; format: biochemical; settings: microtubules present; autoinhibited wild type
T4 construct: MD-NC-CC1 fragment (motor domain, neck coil, CC1)
T4 sequence (A0A0G2K8Z9 48-490 limits assumed): T2 sequence (A0A0G2K8Z9 48-490 T239Y limits assumed) with Y192T

Compound | stoichiometry N [1] | microtubule-stimulated ATPase assay [2] | microtubule-stimulated ATPase, malachite green phosphate endpoint assay (KIF13B MD-NC-CC1 [3]) | microtubule-stimulated ATPase assay [4] | microtubule-stimulated ATPase, malachite green phosphate endpoint assay (KIF13B MD-NC-CC1 [5])
KIF13B T192Y-MD-NC-CC1 mutant (domain or fragment) | 2 | – | – | – | –
Nc1ncnc2c1ncn2[C@@H]1O[C@H](COP(=O)(O)OP(=O)(O)OP(=O)(O)O)[C@@H](O)[C@H]1O [ATP] | – | the C184Y mutant undergo a significant enhancement in its ATPase activity | both the T192Y and L397F mutations significantly restored the ATPase activity of the MD-NC-CC1 fragment | the MD-NC-CC1 fragment of UNC-104 shows the moderate MT-stimulated ATPase activity | Microtubule-stimulated ATPase activity of the KIF13B MD-NC-CC1 fragment
